Patent US8993624B2, “Method of preventing and treating inflammatory diseases and disorders with abscisic acid” (Virginia Tech Intellectual Properties, Inc., priority 2010, dated 2015)

Legend:
NF-κB p65 = NF-κB p65 activity in BMM stimulated with LPS/IFN-γ; format: cell-based, mouse
Method: Bone Marrow-derived Macrophage (BMM) Cultures—Bone marrow cells from PPAR γ flfl; MMTV-Cre− (flfl-Cre−) and flfl-Cre+ mice were cultured in DMEM with M-CSF (50 ng/ml) for 7 days. Fresh media with M-CSF was added on day 3. […] Following differentiation macrophages were directly stimulated with LPS (100 ng/ml) as previously described for 12 hours (21). ABA was added to macrophage cultures at a concentration of 2.5 μM. […]
NF-κB and NFAT activities—Spleens were diced into smaller pieces in lysis buffer containing dithiothreitol and a protease inhibitor cocktail and then further disrupted using a dounce ground glass homogenizer at 4° C. […] The extracts were used to perform a Bradford-based assay for quantifying the protein concentrations and stored at −80° C. NF-κB and NFATc1 activities were measured as previously described (13) by using the Trans-AM™ NF-κB p65 and the Trans-AM™ NFATc1 ELISA-based assays (Active Motif), respectively per the manufacturer's instructions.

RAR = RAR reporter activity (data not shown); format: cell-based
PPAR γ = assay: LANCL2 siRNA and PPAR γ co-transfections in RAW macrophages; format: cell-based
Method: LANCL2 siRNA and PPAR γ co-transfections—RAW macrophages were transfected with the PPAR γ plasmid as described in the preceding section with or without LANCL2 siRNA. Specifically, RAW macrophages were then co-transfected with 0.2-μg plasmid DNA and 0.25 μL LANCL2 siRNA (20 μM) per well using the Lipofectamine 2000 transfection reagent (Invitrogen). […] After incubation, RAW macrophages were harvested in reporter lysis reagent and luciferase activity was determined as described above. LANCL2 mRNA was measured by RT-PCR in control wells to assess the efficiency of knockdown.

NFATc1 = NFATc1 activity in spleens of LPS-challenged mice; format: in vivo, mouse; settings: spleen
Method: NF-κB and NFAT activities—Spleens were diced into smaller pieces in lysis buffer containing dithiothreitol and a protease inhibitor cocktail and then further disrupted using a dounce ground glass homogenizer at 4° C. Nuclear extraction for tissue homogenate and BMM was performed using the Nuclear Extract kit (Active Motif, Carlsbad, Calif.) per the manufacturer's instructions. The extracts were used to perform a Bradford-based assay for quantifying the protein concentrations and stored at −80° C. NF-κB and NFATc1 activities were measured as previously described (13) by using the Trans-AM™ NF-κB p65 and the Trans-AM™ NFATc1 ELISA-based assays (Active Motif), respectively per the manufacturer's instructions.

Influenza A/Udorn (H3N2) = assay: Dietary (prophylactic) ABA, influenza virus challenge in mice; format: in vivo, mouse; settings: for survival: ABA diet
NF-κB = NF-κB reporter activity assay in RAW macrophages; settings: data not shown
[1] = test system: LPS-induced splenic gene expression; assay: LPS challenge in mice, spleen real-time qRT-PCR
[2] = test system: LPS-induced splenic gene expression; assay: LPS challenge in mice, spleen microarray and network analysis
Source text: Microarray data analysis—After homogenization of spleens, total RNA was extracted and purified using the RNAeasy system according to manufacturer's instructions (Qiagen Valencia, Calif.). The QIAGEN RNase-free DNase supplement kit was used to ensure that the RNA was free from DNA contamination. RNA was then processed and labeled according to the standard target labeling protocols and the samples were hybridized, stained, and scanned per standard Affymetrix protocols at VBI core laboratory on Mouse 430 2.0 expression arrays (Affymetrix Inc., Santa Clara, Calif.). All statistical analysis of the data was performed within the R statistical environment—Version 2.9.0 (24) using Bioconductor packages (25)]. Raw microarray data from CEL files were read with ‘affy’ package (26) and pre-processed by gcRMA algorithm (GC Robust Multiarray Average) that performs the three steps: (i) adjustment of the gene expression signal against the background caused by optical noise and non-specific binding, (ii) robust multi-array normalization (27), and (iii) summarization of the probes belonging to each probe set. Empirical Bayes adjustment was applied and p-values were corrected for multiple testing. […] The selected list of genes was analysed with hypergeometric testing that applies Fisher's exact test to find association between interesting genes and membership within the KEGG pathway(s).
The experiment followed a 2×2 factorial design with 2 factors: LPS and ABA, each with 2 levels: absence and presence. Thus there were four groups of mice: LPS & ABA, LPS & control, no LPS & control, no LPS & ABA. The design matrix, constructed in the package ‘limma’, defined coefficients for LPS main effect, ABA main effect and the interaction effect. […] These 43 probe sets were uploaded to IPA8.0 for Ingenuity Pathway Analysis (Ingenuity Systems, Redwood City, Calif.).

[3] = target: T1, ligand-binding domain of PPAR γ (Homo sapiens, UniProt P37231); assay: PPAR γ ligand-binding assay (Polarscreen PPAR Competitor Assay, Green); settings: 0.001-10 μM, 4 hours
T1 construct: purchased Invitrogen
T1 sequence (P37231 238-503 limits assumed): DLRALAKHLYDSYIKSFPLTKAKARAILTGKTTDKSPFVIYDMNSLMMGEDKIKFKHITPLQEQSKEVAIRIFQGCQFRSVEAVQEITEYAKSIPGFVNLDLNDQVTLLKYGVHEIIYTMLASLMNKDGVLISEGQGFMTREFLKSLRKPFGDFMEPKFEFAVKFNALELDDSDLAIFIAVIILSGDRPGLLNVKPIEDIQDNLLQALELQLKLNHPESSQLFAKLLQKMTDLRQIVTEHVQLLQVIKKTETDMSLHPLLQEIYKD
Method: After 4 hours the ability of each compound to displace the fluorescent ligand, and therefore reduce the polarization values, was assessed using a fluorescent plate reader with 485 nm excitation and 535 nm emission. Results are a compilation of 4 independent experiments.

[4] = test system: inactivated influenza virus PR8 antigens; assay: Lymphocyte proliferation after influenza virus vaccination of mice; format: in vivo, mouse
[5] = mice lacking PPAR γ in immune cells
[6] = network analysis, LPS challenged mice

Compound: CC1=CC(=O)CC(C)(C)C1(O)/C=C/C(C)=C\C(=O)O (racemic) [ABA, abscisic acid]
- NF-κB p65 activity in nuclear extracts (NF-κB p65; 2.5 μM ABA, PPAR γ-expressing primary macrophages): significantly decreased
- NF-κB activity (NF-κB p65; macrophages with loss of PPAR γ): further activation induced by ABA
- RAR reporter activity (RAR): does not increase
- PPAR γ reporter activity (PPAR γ; normal LANCL2, ABA 1.25-10 μM, Ros 1 or 10 μM, vs untreated cells): significantly elevated PPAR γ
- PPAR γ reporter activity (PPAR γ; with LANCL2 siRNA): neither ABA nor Ros significantly affected PPAR γ activity
- LPS-mediated activation of NFATc1 (NFATc1): significantly decreased
- survival (Influenza A/Udorn (H3N2); WT mice): 100%
- maximum loss of original body weight (Influenza A/Udorn (H3N2); WT mice, ABA diet 100 mg/kg of diet): 5%
- lung MCP-1 mRNA expression (Influenza A/Udorn (H3N2); WT mice, vs control diet): consistently lower levels of MCP-1 mRNA expression
- extent of vascular infiltrates (Influenza A/Udorn (H3N2); WT, vs control diet): diminished
- infiltration of respiratory airways (Influenza A/Udorn (H3N2); WT, vs control diet): diminished
- lung MCP-1 mRNA expression (Influenza A/Udorn (H3N2); cKO mice): failed to down-regulate MCP-1 expression
- beneficial effect on lung inflammatory cell infiltration (Influenza A/Udorn (H3N2); cKO mice fed ABA): abrogated
- survival (Influenza A/Udorn (H3N2); cKO mice): 71.2%
- viral loads in the lungs (Influenza A/Udorn (H3N2); day 4 post-infection): no significant differences
- expression of PPAR γ in BAL-derived cells (Influenza A/Udorn (H3N2); healthy non-infected WT mice, 36 days): significantly increased
- epithelial recovery (Influenza A/Udorn (H3N2); lung histopathology): neither did it have any effect
- extent of epithelial necrosis (Influenza A/Udorn (H3N2); lung histopathology, days 2, 4, 7): did not affect
- weight loss (Influenza A/Udorn (H3N2); mice with defective PPAR γ expression in immune and epithelial cells (cKO)): behaved similar to WT mice fed the control diet
- NF-κB reporter activity (NF-κB): increased
- iNOS mRNA expression ([1]; data not shown): no effect
- effects of ABA on splenic gene expression [1, 5]: abrogated
- NCOA6 mRNA expression ([1]; regardless of the LPS challenge): increased
- Glut4 mRNA ([1]; spleen, LPS challenge): mitigated the LPS-mediated suppression
- PPAR γ mRNA ([1]; spleen, LPS challenge): mitigated the LPS-mediated suppression
- TNF-α mRNA ([1]; spleen, LPS challenge): suppressed LPS-mediated up-regulation
- magnitude of LPS-modulated gene expression (fold-change) ([2]; 64 genes, spleen): attenuated
- ABA effect on LPS-induced gene expression ([2]; absence of functional immune cell PPAR γ): impaired (or abrogated)
- nuclear receptors (PPAR γ, PPAR α, RXRα, RXRβ) [2, 6]: up-regulation
- pro-inflammatory genes (IL-6, IL-1β, MIF and IFN-γ) [2, 6]: down-regulation
- expression of IL-6, IFN-γ, TNF-α induced protein 2 and chemokine ligand 11 ([2]; spleen, 6 hours post LPS): down-regulated
- ability to compete with the tracer for binding to the PPAR γ LBD [3]: not a PPAR γ ligand
- antigen-specific lymphoproliferative recall responses ([4]; ABA diet 100 mg/kg, days 14 and 21 post-vaccination): increased
- immunostimulatory effect on responses to influenza vaccination [4, 5]: attenuated
